The source of these data is patent US3988337A, “Substituted triamino-s-triazines” (BASF Wyandotte Corporation, priority 1974, dated 1976).

Test [1] can be described thus: Catalysis of toluene diisocyanate condensation to cellular/resinous carbodiimide products (Table I). To be noted: 100 parts toluene diisocyanate. As for the experimental part: Utilizing the triazines of Examples III-VI hereof, a series of cellular and resinous products characterized by carbodiimide linkages, as defined in the above-referred to patents, were prepared by the following procedure:
(§1) One hundred parts of toluene diisocyanate was admixed with a catalyst in accordance herewith. With stirring, the admixture was heated to its reaction initiation temperature at which time the reactants were transferred to a separate container for foaming.

Test [2] is described as follows: Efficacy of triazine catalysts with 1 part methanol in the catalyst blend (Table II). To be noted: 1 part of methanol introduced into the catalyst blend. As for the experimental part: as §1
To test the efficacy of the instant catalysts, samples analogous to samples C, D and Control were prepared, but wherein 1 part of methanol was introduced into the catalyst blend.

For the molecule `CCN(CC)c1nc(N(C)CCO)nc(N(CC)CC)n1` [DMT, 2,4-bis(diethylamino)-6-N-methylethanolamine-s-triazine, reference compound], in test [1] (catalyst 1.0 part), the “Initiation Temperature” value turned out to be 124 °C, the “Max. Exotherm” value is 185 °C and the “Nature of Product” value was “Foam”. Besides, in test [2], the “Initiation Temp.” value turned out to be 25 °C and the “Nature of Product” value is recorded as “No Foam”.
Taken in the same sequence, the figures for `CCCCN(CCCC)c1nc(N(CCO)CCCN(C)C)nc(N(CCCC)CCCC)n1` [Example V, 2,4-bis(dibutylamino)-6-[3-dimethylamino-N-(2-hydroxyethyl)propylamino]-s-triazine] were 95 °C, 197 °C, “Resin”, 25 °C and “Foam”.
For `CN(C)CCCN(CCCN(C)C)c1nc(N(C)CCO)nc(N(CCCN(C)C)CCCN(C)C)n1` [Example IV, 2,4-bis[bis(3-dimethylaminopropyl)amino]-6-(N-methyl-2-hydroxyethylamino)-s-triazine], in test [1] (catalyst 2.0 parts), the “Initiation Temperature” value was 100 °C, the “Max. Exotherm” value was found to be 188 °C and the “Nature of Product” value is given as “Foam”.
In the case of `CCN(CC)CCN(C)c1nc(N(C)CCO)nc(N(C)CCN(CC)CC)n1` [Example VI, 2,4-bis(N-methyl-2-diethylaminoethylamino)-6-(N-methyl-2-hydroxyethylamino)-s-triazine], in test [1] (catalyst 1.0 part), the “Initiation Temperature” value came out at 94 °C, the “Max. Exotherm” value is 140 °C and the “Nature of Product” value is recorded as “Resin”. In addition, in test [2], the “Initiation Temp.” value came out at 25 °C, the “Maximum Exotherm” value is 177 °C and the “Nature of Product” value is on record as “Foam”.
For the molecule `CN(C)CCCN(CCO)c1nc(N(CCO)CCCN(C)C)nc(N(CCO)CCCN(C)C)n1` [Example III, 2,4,6-tris[3-dimethylamino-N-(2-hydroxyethyl)propylamino]-s-triazine], in test [1] (catalyst 2.0 parts), the “Initiation Temperature” value is 95 °C, the “Max. Exotherm” value came to 180 °C and the “Nature of Product” value is “Foam”.
